Measurements reported in patent US20230159510A1, “NOVEL PRMT5 INHIBITORS” (AMGEN INC., priority 2020, published 2023).
Like-named read-outs stand apart in the source and are kept apart here.

Tests used:
HCT116 WT cells = experiment: HCT116 proliferation assay, WT cells (CellTiter-Glo, 6 days); format: cell-based; settings: read-out: Prolif_HCT116-WT IC50
Procedure: (§1) HCT116 MTAP null and WT cells were seeded in 96-well tissue culture plates in RPMI 1640 media + 10% fetal bovine serum. Plates were incubated overnight at 37° C. and 5% CO2. Cells were then treated with a 8- or 9-point serial dilution of compound, using a top concentration of 1 or 10 µM, 1:3 serial dilution steps and, a DMSO-only control. Cells were incubated in the presence of drug for 6 days. Effects on cell viability were measured with the CellTiter-Glo® Luminescent Cell Viability Assay (Promega) per manufacturer’s recommendation. Assay plates were read on an EnVision™ Multilabel Reader using the Ultra-Sensitive luminescence module.

HCT116 MTAP null cells = experiment: HCT116 proliferation assay, MTAP null cells (CellTiter-Glo, 6 days); format: cell-based; settings: read-out: Protif_ HCT116-MTAP null IC50
Procedure: as §1

| Compound | IC50 (HCT116 WT cells; Homo sapiens, HCT-116, 144 h) [nM] | IC50 (HCT116 MTAP null cells; HCT116-MTAP null, 144 h) [nM] | IC50 (HCT116 MTAP null cells; 144 h) [nM] | IC50 (HCT116 WT cells) [nM] | IC50 (HCT116 MTAP null cells) [nM] |
| --- | --- | --- | --- | --- | --- |
| Cc1cc2cc(C(=O)N(Cc3cc[nH]c3)Cc3ccc(C(F)(F)F)cn3)ccc2nc1N [Example 583, N-((1H-pyrrol-3-yl)methyl)-2-amino-3-methyl-N-((5-(trifluoromethyl)pyridin-2-yl)methyl)quinoline-6-carboxamide] | > 1000 | 140 | – | – | – |
| Cc1cc2cc(C(=O)N(CCc3ccon3)Cc3ccc(C(F)(F)F)cn3)ccc2nc1N [Example 585, 2-amino-N-(2-(isoxazol-3-yl)ethyl)-3-methyl-N-((5-(trifluoromethyl)pyridin-2-yl)methyl)quinoline-6-carboxamide] | 11000 | 580 | – | – | – |
| Cc1cc2cc(C(=O)N(Cc3ccc(C(F)(F)F)cn3)C(c3ncccn3)C(C)C)ccc2nc1N (stereo not shown) [Example 805, 2-amino-3-methyl-N-(2-methyl-1-(pyrimidin-2-yl)propyl)-N-((5-(trifluoromethyl)pyridin-2-yl)methyl)quinoline-6-carboxamide] | 2000 | 144 | – | – | – |
| Cc1cc2cc(C(=O)N(Cc3ccc(N4CCCCC4)cc3)CC3(C#N)CC3)ccc2nc1N [Example 574, 2-amino-N-((1-cyanocyclopropyl)methyl)-3-methyl-N-(4-(piperidin-1-yl)benzyl)quinoline-6-carboxamide] | > 1000 | 490 | – | – | – |
| N#Cc1ccc(CN(C(=O)c2ccc3nc(N)c(Br)cc3c2)[C@@H](c2ncccn2)C2CC2)nc1 [Example 738, 2-amino-3-bromo-N-((5-cyano-2-pyridinyl)methyl)-N-((R)-cyclopropyl(2-pyrimidinyl)methyl)-6-quinolinecarboxamide] | 4300 | 173 | – | – | – |
| CC[C@H](c1ncccn1)N(Cc1ccc(C#N)cn1)C(=O)c1ccc2nc(N)c(Br)cc2c1 [Example 759, (R)-2-amino-3-bromo-N-((5-cyanopyridin-2-yl)methyl)-N-(1-(pyrimidin-2-yl)propyl)quinoline-6-carboxamide] | > 10000 | 293 | – | – | – |
| C[C@H](c1ncccn1)N(Cc1ccc(C2CC2)nn1)C(=O)c1ccc2nc(N)c(I)cc2c1 [Example 763, (R)-2-amino-N-((6-cyclopropylpyridazin-3-yl)methyl)-3-iodo-N-(1-(pyrimidin-2-yl)ethyl)quinoline-6-carboxamide] | 4340 | 57 | – | – | – |
| C[C@H](c1ncccn1)N(Cc1ccc(C#N)c(Cl)n1)C(=O)c1ccc2nc(N)c(I)cc2c1 [Example 769, (R)-2-amino-N-((6-chloro-5-cyanopyridin-2-yl)methyl)-3-iodo-N-(1-(pyrimidin-2-yl)ethyl)quinoline-6-carboxamide] | 5010 | 52 | – | – | – |
| [2H]C([2H])([2H])c1cc2cc(C(=O)N(Cc3ccc(C(F)(F)F)cn3)CC(C)C)ccc2nc1N [Example 398, 2-amino-N-isobutyl-3-(methyl-d3)-N-((5-(trifluoromethyl)pyridin-2-yl)methyl)quinoline-6-carboxamide] | 4780 | – | 247 | – | – |
| N#Cc1ccc(CN(C(=O)c2ccc3nc(N)c(Br)cc3c2)C2CCCC2C#N)nc1 (stereo not shown) [Example 827, 2-amino-3-bromo-N-(2-cyanocyclopentyl)-N-((5-cyanopyridin-2-yl)methyl)quinoline-6-carboxamide] | > 1000 | 880 | – | – | – |
| Nc1nc2ccc(C(=O)N(Cc3ccc(Br)nn3)[C@@H]3CCCn4ncnc43)cc2cc1Br [Example 758, (R)-2-amino-3-bromo-N-((6-bromopyridazin-3-yl)methyl)-N-(5,6,7,8-tetrahydro-[1,2,4]triazolo[1,5-a]pyridin-8-yl)quinoline-6-carboxamide] | > 10000 | 337 | – | – | – |
| Cc1c(Br)c(N)nc2ncc(C(=O)N(Cc3ccc(C#N)cn3)[C@H](C)c3ncccn3)cc12 [Example 744, (R)-7-amino-6-bromo-N-((5-cyanopyridin-2-yl)methyl)-5-methyl-N-(1-(pyrimidin-2-y 1)ethy 1)-1 ,8-naphthyridine-3-carboxamide] | 4120 | 188 | – | – | – |
| CC(=O)c1ccc(CN(C(=O)c2ccc3nc(N)c(C)cc3c2)[C@H](C)c2ncccn2)nc1 [Example 754, N-((5-acetyl-2-pyridinyl)methyl)-2-amino-3-methyl-N-((1R)-1-(2-pyrimidinyl)ethyl)-6-quinolinecarboxamide] | 4110 | 130 | – | – | – |
| Cc1cc2cc(C(=O)N(Cc3ccc(C(F)(F)F)cn3)[C@@H]3COCc4ncccc43)ccc2nc1N (single isomer, unassigned) [Example 814] | 1760 | 62 | – | – | – |
| 2-amino-N-((3R,4S)-3-fluorotetrahydro-2H-pyran-4-yl)-3-methyl-N-((5-(trifluoromethyl)-2-pyridinyl)methyl)-6-quinolinecarboxamide and 2-amino-N-((3S,4R)-3-fluorotetrahydro-2H-pyran-4-yl)-3-methyl-N-((5-(trifluoromethyl)-2-pyridinyl)methyl)-6-quinolinecarboxamide [Example 747] | – | – | – | 5260 | 385 |
| COc1ccc(CN(C(=O)c2ccc3nc(N)c(C)cc3c2)[C@@H](c2ncccn2)C2CC2)nn1 (single isomer, unassigned) [Example 775] | 1680 | 50 | – | – | – |
| C[C@H](c1ncccn1)N(Cc1ccc(C2CC2)nn1)C(=O)c1ccc2nc(N)c(Br)cc2c1 [Example 762, (R)-2-amino-3-bromo-N-((6-cyclopropylpyridazin-3-yl)methyl)-N-(1-(pyrimidin-2-yl)ethyl)quinoline-6-carboxamide] | 8800 | 180 | – | – | – |
| N#CC[C@@H](C1CC1)N(Cc1ccc(C#N)cn1)C(=O)c1ccc2nc(N)c(Br)cc2c1 [Example 776, (S)-2-amino-3-bromo-N-(2-cyano-1-cyclopropylethyl)-N-((5-cyanopyridin-2-yl)methyl)quinoline-6-carboxamide] | 7220 | 195 | – | – | – |
| Cc1cc2cc(C(=O)N(Cc3ccc4c(c3)NC(=O)CO4)Cc3ccccc3F)ccc2nc1N [Example 569, 2-amino-N-[(2-fluorophenyl)methyl]-3-methyl-N-[(3-oxo-4H-1,4-benzoxazin-6-yl)methyl] quinoline-6-carboxamide] | 7160 | 331 | – | – | – |
| Cc1cc2cc(C(=O)N(Cc3ccc(C4CC4)cn3)[C@H](C)c3ncccn3)ccc2nc1N [Example 821, (R)-2-amino-N-((5-cyclopropylpyridin-2-yl)methyl)-3-methyl-N-(1-(pyrimidin-2-yl)ethyl)quinoline-6-carboxamide] | 372 | 19 | – | – | – |
| Cc1cc2cc(C(=O)N(Cc3ccc(C(F)(F)F)cn3)[C@@H]3CCC[C@H]3C#N)ccc2nc1N (single isomer, unassigned) [Example 812] | 1040 | 43 | – | – | – |
| Cc1cc2cc(C(=O)N(Cc3ccc(OC(F)(F)F)nn3)C(C)c3ncccn3)ccc2nc1N (stereo not shown) [Example 791, 2-amino-3-methyl-N-(1-(pyrimidin-2-yl)ethyl)-N-((6-(trifluoromethoxy)pyridazin-3-yl)methyl)quinoline-6-carboxamide] | 1720 | 60 | – | – | – |
| Cc1cc2cc(C(=O)N(Cc3ccc(C(F)(F)F)cn3)[C@H](C)c3cccc(F)n3)ccc2nc1N [Example 799, (R)-2-amino-N-(1-(6-fluoropyridin-2-yl)ethyl)-3-methyl-N-((5-(trifluoromethyl)pyridin-2-yl)methyl)quinoline-6-carboxamide] | 301 | 13 | – | – | – |
